Measured values published in patent US10196386B2, “Compounds having muscarinic receptor antagonist and beta2 adrenergic receptor agonist activity” (priority 2016, dated 2019).

Legend:
Human M3 receptor = biological target: T1, Human M3 receptor (Homo sapiens, UniProt P20309); test: biochemical; format: binding; settings: read-out: M3 Range
T1 construct: purchased Perkin Elmer

Human β2 adrenoceptor = biological target: T2, Human β2 adrenoceptor (Homo sapiens, UniProt P07550); test: β2 adrenoceptor radioligand binding assay
T2 construct: purchased Perkin Elmer
T2 sequence (P07550 whole entry): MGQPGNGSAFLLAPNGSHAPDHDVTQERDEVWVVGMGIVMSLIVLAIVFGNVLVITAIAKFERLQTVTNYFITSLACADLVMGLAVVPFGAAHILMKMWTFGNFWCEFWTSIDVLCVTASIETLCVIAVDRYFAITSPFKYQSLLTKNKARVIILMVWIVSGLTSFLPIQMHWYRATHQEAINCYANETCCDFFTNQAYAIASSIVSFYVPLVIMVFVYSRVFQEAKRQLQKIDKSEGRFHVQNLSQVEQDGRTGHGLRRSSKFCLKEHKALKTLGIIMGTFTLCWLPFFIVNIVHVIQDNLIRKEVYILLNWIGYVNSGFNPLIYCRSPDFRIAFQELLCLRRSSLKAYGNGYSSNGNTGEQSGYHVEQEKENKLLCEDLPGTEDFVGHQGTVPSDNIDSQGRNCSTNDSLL
Procedure, shortened: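 Human β2 receptor membranes incubated 1 h at room temperature with 0.3 nM [125I]cyanopindolol and compound in pH 7.4 HEPES buffer (0.5% DMSO); 2 μM s-propranolol defined non-specific binding. Bound label counted after filtration; IC50 from competition curves, converted to Ki via Cheng–Prusoff.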

T1 sequence (P20309 whole entry): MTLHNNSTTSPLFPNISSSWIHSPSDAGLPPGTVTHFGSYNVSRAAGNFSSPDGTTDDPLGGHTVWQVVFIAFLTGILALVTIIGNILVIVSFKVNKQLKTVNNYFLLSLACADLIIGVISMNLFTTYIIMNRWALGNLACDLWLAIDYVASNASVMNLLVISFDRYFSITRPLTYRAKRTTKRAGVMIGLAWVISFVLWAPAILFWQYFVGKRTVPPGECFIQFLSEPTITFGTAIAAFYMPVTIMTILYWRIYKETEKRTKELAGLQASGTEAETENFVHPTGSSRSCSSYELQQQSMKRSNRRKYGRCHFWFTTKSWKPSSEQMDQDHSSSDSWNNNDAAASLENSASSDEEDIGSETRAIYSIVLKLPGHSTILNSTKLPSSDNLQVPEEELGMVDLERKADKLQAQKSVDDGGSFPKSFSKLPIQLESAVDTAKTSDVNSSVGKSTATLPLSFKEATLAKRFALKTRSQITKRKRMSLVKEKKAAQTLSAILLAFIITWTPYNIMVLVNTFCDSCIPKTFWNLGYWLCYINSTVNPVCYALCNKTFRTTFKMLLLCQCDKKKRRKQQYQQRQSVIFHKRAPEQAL

Row | SMILES | IC50 (Human M3 receptor) [nM] | IC50 (Human β2 adrenoceptor) [nM]
1 | O=C(NCCc1ccc(-c2cccc([C@](O)(C(=O)OCC3CCN(Cc4ccccc4)CC3)c3ccccc3)c2)s1)c1ccc(CNC[C@H](O)c2ccc(O)c3[nH]c(=O)ccc23)cc1 [Compound 5D, (1-Benzylpiperidin-4-yl)methyl (S)-2-hydroxy-2-(3-(5-(2-(4-((((R)-2-hydroxy-2-(8-hydroxy-2-oxo-1,2-dihydroquinolin-5-yl)ethyl)amino)methyl)-benzamido)ethyl)thiophen-2-yl)phenyl)-2-phenylacetate] | 0.3 to 3 | < 0.3
2 | COc1cc(C(=O)NCc2nccnc2-c2cccc([C@](O)(C(=O)OCC3CCN(Cc4ccccc4)CC3)c3ccccc3)c2)ccc1CNC[C@H](O)c1ccc(O)c2[nH]c(=O)ccc12 [Compound 5E, (1-Benzylpiperidin-4-yl)methyl (S)-2-hydroxy-2-(3-(3-((4-((((R)-2-hydroxy-2-(8-hydroxy-2-oxo-1,2-dihydroquinolin-5-yl)ethyl)amino)methyl)-3-methoxybenzamido)methyl)pyrazin-2-yl)phenyl)-2-phenylacetate] | 0.3 to 3 | < 0.3
3 | O=C(c1ccnc(-c2cccc([C@](O)(C(=O)OCC3CCN(Cc4ccccc4)CC3)c3ccccc3)c2)c1)N1CCC(CNC[C@H](O)c2ccc(O)c3[nH]c(=O)ccc23)CC1 [Compound 6, (1-Benzylpiperidin-4-yl)methyl (S)-2-hydroxy-2-(3-(4-(4-((((R)-2-hydroxy-2-(8-hydroxy-2-oxo-1,2-dihydroquinolin-5-yl)ethyl)amino)methyl)piperidine-1-carbonyl)pyridin-2-yl)phenyl)-2-phenylacetate] | 0.3 to 3 | < 0.3
4 | O=C(c1cncc(-c2cccc([C@](O)(C(=O)OCC3CCN(Cc4ccccc4)CC3)c3ccccc3)c2)n1)N1CCC(CNC[C@H](O)c2ccc(O)c3[nH]c(=O)ccc23)CC1 [Compound 6A, (1-Benzylpiperidin-4-yl)methyl (S)-2-hydroxy-2-(3-(6-(4-((((R)-2-hydroxy-2-(8-hydroxy-2-oxo-1,2-dihydroquinolin-5-yl)ethyl)amino)methyl)piperidine-1-carbonyl)pyrazin-2-yl)phenyl)-2-phenylacetate] | 0.3 to 3 | 0.3 to 3
5 | O=C(c1cc(-c2cccc([C@](O)(C(=O)OCC3CCN(Cc4ccccc4)CC3)c3ccccc3)c2)ccn1)N1CCC(CNC[C@H](O)c2ccc(O)c3[nH]c(=O)ccc23)CC1 [Compound 6B, (1-Benzylpiperidin-4-yl)methyl (S)-2-hydroxy-2-(3-(2-(4-((((R)-2-hydroxy-2-(8-hydroxy-2-oxo-1,2-dihydroquinolin-5-yl)ethyl)amino)methyl)piperidine-1-carbonyl)pyridin-4-yl)phenyl)-2-phenylacetate] | 0.3 to 3 | < 0.3
6 | O=C(c1ccc(-c2cccc([C@](O)(C(=O)OCC3CCN(Cc4ccccc4)CC3)c3ccccc3)c2)cn1)N1CCC(CNC[C@H](O)c2ccc(O)c3[nH]c(=O)ccc23)CC1 [Compound 6C, (1-Benzylpiperidin-4-yl)methyl (S)-2-hydroxy-2-(3-(6-(4-((((R)-2-hydroxy-2-(8-hydroxy-2-oxo-1,2-dihydroquinolin-5-yl)ethyl)amino)methyl)piperidine-1-carbonyl)pyridin-3-yl)phenyl)-2-phenylacetate] | < 0.3 | < 0.3
7 | O=C(c1ccc(-c2cccc([C@](O)(C(=O)OCC3CCN(Cc4ccccc4)CC3)c3ccccc3)c2)nc1)N1CCC(CNC[C@H](O)c2ccc(O)c3[nH]c(=O)ccc23)CC1 [Compound 6D, (1-Benzylpiperidin-4-yl)methyl (S)-2-hydroxy-2-(3-(5-(4-((((R)-2-hydroxy-2-(8-hydroxy-2-oxo-1,2-dihydroquinolin-5-yl)ethyl)amino)methyl)piperidine-1-carbonyl)pyridin-2-yl)phenyl)-2-phenylacetate] | 0.3 to 3 | < 0.3
8 | O=C(c1cncc(-c2cccc([C@](O)(C(=O)OCC3CCN(Cc4ccccc4)CC3)c3ccccc3)c2)c1)N1CCC(CNC[C@H](O)c2ccc(O)c3[nH]c(=O)ccc23)CC1 [Compound 6E, (1-Benzylpiperidin-4-yl)methyl (S)-2-hydroxy-2-(3-(5-(4-((((R)-2-hydroxy-2-(8-hydroxy-2-oxo-1,2-dihydroquinolin-5-yl)ethyl)amino)methyl)piperidine-1-carbonyl)pyridin-3-yl)phenyl)-2-phenylacetate] | 0.3 to 3 | < 0.3
9 | O=C(c1cccc(-c2cccc([C@](O)(C(=O)OCC3CCN(Cc4ccccc4)CC3)c3ccccc3)c2)n1)N1CCC(CNC[C@H](O)c2ccc(O)c3[nH]c(=O)ccc23)CC1 [Compound 6F, (1-Benzylpiperidin-4-yl)methyl (S)-2-hydroxy-2-(3-(6-(4-((((R)-2-hydroxy-2-(8-hydroxy-2-oxo-1,2-dihydroquinolin-5-yl)ethyl)amino)methyl)piperidine-1-carbonyl)pyridin-2-yl)phenyl)-2-phenylacetate] | 0.3 to 3 | 0.3 to 3
10 | O=C(c1ccc(CNC[C@H](O)c2ccc(O)c3[nH]c(=O)ccc23)cc1)N1CCC(c2cccc([C@](O)(C(=O)OCC3CCN(Cc4ccccc4)CC3)c3ccccc3)c2)CC1 [Compound 7, (1-Benzylpiperidin-4-yl)methyl (S)-2-hydroxy-2-(3-(1-(4-((((R)-2-hydroxy-2-(8-hydroxy-2-oxo-1,2-dihydroquinolin-5-yl)ethyl)amino)methyl)benzoyl)piperidin-4-yl)phenyl)-2-phenylacetate] | 0.3 to 3 | 0.3 to 3
11 | COc1cc(C(=O)N2CCC(c3cccc([C@](O)(C(=O)OCC4CCN(Cc5ccccc5)CC4)c4ccccc4)c3)CC2)ccc1CNC[C@H](O)c1ccc(O)c2[nH]c(=O)ccc12 [Compound 7A, (1-Benzylpiperidin-4-yl)methyl (S)-2-hydroxy-2-(3-(1-(4-((((R)-2-hydroxy-2-(8-hydroxy-2-oxo-1,2-dihydroquinolin-5-yl)ethyl)amino)methyl)-3-methoxybenzoyl)piperidin-4-yl)phenyl)-2-phenylacetate] | 0.3 to 3 | 0.3 to 3
12 | COc1cc(CNC[C@H](O)c2ccc(O)c3[nH]c(=O)ccc23)ccc1C(=O)N1CCC(c2cccc([C@](O)(C(=O)OCC3CCN(Cc4ccccc4)CC3)c3ccccc3)c2)CC1 [Compound 7B, (1-Benzylpiperidin-4-yl)methyl (S)-2-hydroxy-2-(3-(1-(4-((((R)-2-hydroxy-2-(8-hydroxy-2-oxo-1,2-dihydroquinolin-5-yl)ethyl)amino)methyl)-2-methoxybenzoyl)piperidin-4-yl)phenyl)-2-phenylacetate] | 0.3 to 3 | > 3
13 | O=C(c1ccc(CCNC[C@H](O)c2ccc(O)c3[nH]c(=O)ccc23)cc1)N1CCC(c2cccc([C@](O)(C(=O)OCC3CCN(Cc4ccccc4)CC3)c3ccccc3)c2)CC1 [Compound 7C, (1-Benzylpiperidin-4-yl)methyl (S)-2-hydroxy-2-(3-(1-(4-(2-(((R)-2-hydroxy-2-(8-hydroxy-2-oxo-1,2-dihydroquinolin-5-yl)ethyl)amino)ethyl)benzoyl)piperidin-4-yl)phenyl)-2-phenylacetate] | 0.3 to 3 | < 0.3
14 | O=C(c1ccc2c(c1)CC(NC[C@H](O)c1ccc(O)c3[nH]c(=O)ccc13)C2)N1CCC(c2cccc([C@](O)(C(=O)OCC3CCN(Cc4ccccc4)CC3)c3ccccc3)c2)CC1 (stereo partly drawn) [Compound 7D, (1-Benzylpiperidin-4-yl)methyl (2S)-2-hydroxy-2-(3-(1-(2-(((R)-2-hydroxy-2-(8-hydroxy-2-oxo-1,2-dihydroquinolin-5-yl)ethyl)amino)-2,3-dihydro-1H-indene-5-carbonyl)piperidin-4-yl)phenyl)-2-phenylacetate] | < 0.3 | 0.3 to 3
15 | O=C(NCC(=O)N1CC=C(c2cccc([C@](O)(C(=O)OCC3CCN(Cc4ccccc4)CC3)c3ccccc3)c2)CC1)c1ccc(CCNC[C@H](O)c2ccc(O)c3[nH]c(=O)ccc23)cc1 [Compound 8, (1-Benzylpiperidin-4-yl)methyl (S)-2-hydroxy-2-(3-(1-((4-(2-(((R)-2-hydroxy-2-(8-hydroxy-2-oxo-1,2-dihydroquinolin-5-yl)ethyl)amino)ethyl)benzoyl)-glycyl)-1,2,3,6-tetrahydropyridin-4-yl)phenyl)-2-phenylacetate] | < 0.3 | < 0.3
16 | COc1cc(CNC[C@H](O)c2ccc(O)c3[nH]c(=O)ccc23)ccc1C(=O)NCC(=O)N1CC=C(c2cccc([C@](O)(C(=O)OCC3CCN(Cc4ccccc4)CC3)c3ccccc3)c2)CC1 [Compound 8A, (1-Benzylpiperidin-4-yl)methyl (S)-2-hydroxy-2-(3-(1-((4-((((R)-2-hydroxy-2-(8-hydroxy-2-oxo-1,2-dihydroquinolin-5-yl)ethyl)amino)methyl)-2-methoxybenzoyl)glycyl)-1,2,3,6-tetrahydropyridin-4-yl)phenyl)-2-phenylacetate] | 0.3 to 3 | < 0.3
17 | C[C@@H](NC(=O)c1ccc(CNC[C@H](O)c2ccc(O)c3[nH]c(=O)ccc23)cc1)C(=O)N1CC=C(c2cccc([C@](O)(C(=O)OCC3CCN(Cc4ccccc4)CC3)c3ccccc3)c2)CC1 [Compound 8B, (1-Benzylpiperidin-4-yl)methyl (S)-2-hydroxy-2-(3-(1-((4-((((R)-2-hydroxy-2-(8-hydroxy-2-oxo-1,2-dihydroquinolin-5-yl)ethyl)amino)methyl)benzoyl)-D-alanyl)-1,2,3,6-tetrahydropyridin-4-yl)phenyl)-2-phenylacetate] | 0.3 to 3 | 0.3 to 3
18 | C[C@H](NC(=O)c1ccc(CNC[C@H](O)c2ccc(O)c3[nH]c(=O)ccc23)cc1)C(=O)N1CC=C(c2cccc([C@](O)(C(=O)OCC3CCN(Cc4ccccc4)CC3)c3ccccc3)c2)CC1 [Compound 8C, (1-Benzylpiperidin-4-yl)methyl (S)-2-hydroxy-2-(3-(1-((4-((((R)-2-hydroxy-2-(8-hydroxy-2-oxo-1,2-dihydroquinolin-5-yl)ethyl)amino)methyl)benzoyl)-L-alanyl)-1,2,3,6-tetrahydropyridin-4-yl)phenyl)-2-phenylacetate] | 0.3 to 3 | 0.3 to 3
